Source: the NIST ThermoML archive (doi:10.1016/j.jct.2004.03.011)
Numbers after ± are expanded uncertainties.

Test: xn = mol fraction of the nth substance listed
Conditions: Liquid

CO [methanol] + O
excess molar volume [m3/mol]
Conditions	298.15 K	323.15 K	348.15 K	373.15 K	398.15 K	423.15 K	448.15 K	473.15 K	498.15 K	523.15 K
100 kPa, x1 = 0.25	-7.42e-07 ± 1.9e-08	-7.75e-07 ± 1.9e-08	–	–	–	–	–	–	–	–
100 kPa, x1 = 0.5	-1.014e-06 ± 2e-08	-1.049e-06 ± 2e-08	–	–	–	–	–	–	–	–
100 kPa, x1 = 0.75	-7.05e-07 ± 1.9e-08	-7.38e-07 ± 1.9e-08	–	–	–	–	–	–	–	–
5000 kPa, x1 = 0.25	-7.13e-07 ± 1.9e-08	-7.41e-07 ± 1.9e-08	-7.75e-07 ± 1.9e-08	-8.26e-07 ± 1.9e-08	-8.9e-07 ± 2e-08	-9.81e-07 ± 2e-08	-1.223e-06 ± 2.2e-08	-1.902e-06 ± 2.5e-08	–	–
5000 kPa, x1 = 0.5	-9.63e-07 ± 2e-08	-9.91e-07 ± 2e-08	-1.022e-06 ± 2e-08	-1.082e-06 ± 2.1e-08	-1.146e-06 ± 2.1e-08	-1.247e-06 ± 2.1e-08	-1.583e-06 ± 2.3e-08	-2.545e-06 ± 2.8e-08	–	–
5000 kPa, x1 = 0.75	-6.74e-07 ± 1.9e-08	-7.02e-07 ± 1.9e-08	-7.58e-07 ± 1.9e-08	-8.14e-07 ± 1.9e-08	-8.68e-07 ± 2e-08	-9.59e-07 ± 2e-08	-1.163e-06 ± 2.1e-08	-1.736e-06 ± 2.4e-08	–	–
10000 kPa, x1 = 0.25	-6.85e-07 ± 1.9e-08	-7.07e-07 ± 1.9e-08	-7.33e-07 ± 1.9e-08	-7.67e-07 ± 1.9e-08	-8.12e-07 ± 1.9e-08	-8.74e-07 ± 2e-08	-9.78e-07 ± 2e-08	-1.285e-06 ± 2.2e-08	-2.081e-06 ± 2.6e-08	–
10000 kPa, x1 = 0.5	-9.15e-07 ± 2e-08	-9.36e-07 ± 2e-08	-9.61e-07 ± 2e-08	-9.85e-07 ± 2e-08	-1.017e-06 ± 2e-08	-1.072e-06 ± 2.1e-08	-1.246e-06 ± 2.1e-08	-1.616e-06 ± 2.4e-08	-2.481e-06 ± 2.8e-08	–
10000 kPa, x1 = 0.75	-6.44e-07 ± 1.8e-08	-6.7e-07 ± 1.9e-08	-7.12e-07 ± 1.9e-08	-7.46e-07 ± 1.9e-08	-7.89e-07 ± 1.9e-08	-8.43e-07 ± 1.9e-08	-9.16e-07 ± 2e-08	-1.12e-06 ± 2.1e-08	-1.949e-06 ± 2.5e-08	–
20000 kPa, x1 = 0.25	-6.27e-07 ± 1.8e-08	-6.4e-07 ± 1.8e-08	-6.5e-07 ± 1.9e-08	-6.6e-07 ± 1.9e-08	-6.68e-07 ± 1.9e-08	-6.78e-07 ± 1.9e-08	-7.11e-07 ± 1.9e-08	-8e-07 ± 1.9e-08	-8.98e-07 ± 2e-08	-1.217e-06 ± 2.1e-08
20000 kPa, x1 = 0.5	-8.31e-07 ± 1.9e-08	-8.38e-07 ± 1.9e-08	-8.45e-07 ± 1.9e-08	-8.51e-07 ± 1.9e-08	-8.57e-07 ± 1.9e-08	-8.64e-07 ± 2e-08	-8.73e-07 ± 2e-08	-8.91e-07 ± 2e-08	-9.52e-07 ± 2e-08	-1.421e-06 ± 2.2e-08
20000 kPa, x1 = 0.75	-5.93e-07 ± 1.8e-08	-6.05e-07 ± 1.8e-08	-6.23e-07 ± 1.8e-08	-6.44e-07 ± 1.9e-08	-6.56e-07 ± 1.9e-08	-6.65e-07 ± 1.9e-08	-6.88e-07 ± 1.9e-08	-7.38e-07 ± 1.9e-08	-8.16e-07 ± 2e-08	-1.204e-06 ± 2.1e-08
30000 kPa, x1 = 0.25	-5.75e-07 ± 1.8e-08	-5.74e-07 ± 1.8e-08	-5.73e-07 ± 1.8e-08	-5.71e-07 ± 1.8e-08	-5.68e-07 ± 1.8e-08	-5.65e-07 ± 1.8e-08	-5.62e-07 ± 1.8e-08	-5.58e-07 ± 1.8e-08	-5.54e-07 ± 1.8e-08	-5.47e-07 ± 1.8e-08
30000 kPa, x1 = 0.5	-7.62e-07 ± 1.9e-08	-7.51e-07 ± 1.9e-08	-7.38e-07 ± 1.9e-08	-7.26e-07 ± 1.9e-08	-7.09e-07 ± 1.9e-08	-6.92e-07 ± 1.9e-08	-6.64e-07 ± 1.9e-08	-6.29e-07 ± 1.8e-08	-5.87e-07 ± 1.8e-08	-5.46e-07 ± 1.8e-08
30000 kPa, x1 = 0.75	-5.53e-07 ± 1.8e-08	-5.49e-07 ± 1.8e-08	-5.37e-07 ± 1.8e-08	-5.28e-07 ± 1.8e-08	-5.19e-07 ± 1.8e-08	-5.12e-07 ± 1.8e-08	-4.93e-07 ± 1.8e-08	-4.65e-07 ± 1.8e-08	-4.28e-07 ± 1.8e-08	-3.91e-07 ± 1.7e-08
40000 kPa, x1 = 0.25	-5.29e-07 ± 1.8e-08	-5.2e-07 ± 1.8e-08	-5.12e-07 ± 1.8e-08	-5.07e-07 ± 1.8e-08	-4.94e-07 ± 1.8e-08	-4.81e-07 ± 1.8e-08	-4.64e-07 ± 1.8e-08	-4.41e-07 ± 1.8e-08	-4.12e-07 ± 1.7e-08	-3.76e-07 ± 1.7e-08
40000 kPa, x1 = 0.5	-7.02e-07 ± 1.9e-08	-6.85e-07 ± 1.9e-08	-6.67e-07 ± 1.9e-08	-6.47e-07 ± 1.9e-08	-6.14e-07 ± 1.8e-08	-5.71e-07 ± 1.8e-08	-5.13e-07 ± 1.8e-08	-4.66e-07 ± 1.8e-08	-4.01e-07 ± 1.7e-08	-3.36e-07 ± 1.7e-08
40000 kPa, x1 = 0.75	-5.14e-07 ± 1.8e-08	-5.02e-07 ± 1.8e-08	-4.81e-07 ± 1.8e-08	-4.58e-07 ± 1.8e-08	-4.35e-07 ± 1.8e-08	-4.2e-07 ± 1.7e-08	-3.86e-07 ± 1.7e-08	-3.3e-07 ± 1.7e-08	-2.7e-07 ± 1.7e-08	-2.01e-07 ± 1.6e-08
50000 kPa, x1 = 0.25	-4.85e-07 ± 1.8e-08	-4.75e-07 ± 1.8e-08	-4.64e-07 ± 1.8e-08	-4.52e-07 ± 1.8e-08	-4.33e-07 ± 1.8e-08	-4.13e-07 ± 1.7e-08	-3.89e-07 ± 1.7e-08	-3.59e-07 ± 1.7e-08	-3.26e-07 ± 1.7e-08	-2.77e-07 ± 1.7e-08
50000 kPa, x1 = 0.5	-6.49e-07 ± 1.9e-08	-6.32e-07 ± 1.8e-08	-6.06e-07 ± 1.8e-08	-5.81e-07 ± 1.8e-08	-5.37e-07 ± 1.8e-08	-4.75e-07 ± 1.8e-08	-4.04e-07 ± 1.7e-08	-3.42e-07 ± 1.7e-08	-2.68e-07 ± 1.7e-08	-1.97e-07 ± 1.6e-08
50000 kPa, x1 = 0.75	-4.65e-07 ± 1.8e-08	-4.55e-07 ± 1.8e-08	-4.4e-07 ± 1.8e-08	-4.14e-07 ± 1.7e-08	-3.8e-07 ± 1.7e-08	-3.49e-07 ± 1.7e-08	-3e-07 ± 1.7e-08	-2.37e-07 ± 1.7e-08	-1.6e-07 ± 1.6e-08	-8.4e-08 ± 1.6e-08
60000 kPa, x1 = 0.25	-4.61e-07 ± 1.8e-08	-4.39e-07 ± 1.8e-08	-4.23e-07 ± 1.7e-08	-4.05e-07 ± 1.7e-08	-3.83e-07 ± 1.7e-08	-3.56e-07 ± 1.7e-08	-3.27e-07 ± 1.7e-08	-2.9e-07 ± 1.7e-08	-2.45e-07 ± 1.7e-08	-1.86e-07 ± 1.6e-08
60000 kPa, x1 = 0.5	-6.02e-07 ± 1.8e-08	-5.84e-07 ± 1.8e-08	-5.58e-07 ± 1.8e-08	-5.21e-07 ± 1.8e-08	-4.75e-07 ± 1.8e-08	-4.01e-07 ± 1.7e-08	-3.18e-07 ± 1.7e-08	-2.41e-07 ± 1.7e-08	-1.61e-07 ± 1.6e-08	-8.4e-08 ± 1.6e-08
60000 kPa, x1 = 0.75	–	-4.28e-07 ± 1.7e-08	-4.06e-07 ± 1.7e-08	-3.72e-07 ± 1.7e-08	-3.33e-07 ± 1.7e-08	-2.84e-07 ± 1.7e-08	-2.23e-07 ± 1.7e-08	-1.58e-07 ± 1.6e-08	-8.4e-08 ± 1.6e-08	-5e-09 ± 1.6e-08
